Measurements: US20230248717A1, “N-(3-HYDROXYPYRIDINE-2-CARBONYL)GLYCINE-BASED ANTITUMOR DRUG SENSITIZER AND APPLICATION THEREOF” (ZHEJIANG UNIVERSITY, priority 2019, published 2023)
Values after ≈ are worked out from the molar mass of the structure shown. Like-named read-outs stand apart in the source and are kept apart here.

What was measured:
[1] = test system: CT26 mouse colon cancer cells;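 note: MTT read-out taken as absorbance at 562 nm after a 3 h dye incubation, medium-only wells as blank, values averaged over three independent experiments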
Protocol: (§1) CT26 cells (MC38 cells, 4T1 cells, B16FIO cells, HePa1-6 cells, H22 cells, LLC cells, MB49 cells, P388 cells, C6 cells, BXPC-3 cells, Hela cells, MDA-MB-231 cells, A2780 cells. PC3 cells. HepG2 cells, and HGC-27 cells) were cultured at 5,000 cells/well in a 96-well plate, 100 μL of a medium was added to each well, and the cells were incubated in a 37° C. constant-temperature incubator with 5% CO2 and 95% humidity for 24 h. 100 μL of different concentrations of drugs (DOX: 0.01 μg/mL to 10 μg/mL; PTX: 0.01 μg/mL to 50 μg/mL; Cela: 0.05 μg/mL to 1 μg/mL; sensitizer: 5 μg/mL) were added to each well, while 100 lit of a medium solution was added to the blank group. After culturing for 48 h, centrifugation was conducted at 1,100 rpm for 6 min, the medium in each well was discarded, 100 μL of an 11,11T working solution was added, and the culturing was continued for 3 h. Centrifugation was conducted at 3,300 rpm. for 5 min, the MITT medium in each well was discarded, 100 pt, of the DMSO was added, and the plate was shaken for 5 min to dissolve all crystals in each well. An absorbance of the sample at 562 nm was detected by a microplate reader. Each set of data was an average of three independent experimental results on the same sample.

[2] = test system: CT26 mouse colon cancer cells; assay: Cytotoxicity (MTT) in combination with chemotherapeutic drugs; conditions: for IC50, Compound 7+: CT26 cell line, chemotherapeutic drug in combination with compound 7 (sensitizer 5 μg/mL), 48 h;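 for all read-outs here: MTT read-out taken as absorbance at 562 nm after a 3 h dye incubation, medium-only wells as blank, values averaged over three independent experiments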
Protocol: as §1

[3] = test system: LLC mouse lung cancer cells; assay: Cytotoxicity (MTT) in combination with DOX; format: cell-based; conditions: 48 h, sensitizer 5 μg/mL in the combination
Protocol: as §1

H22 mouse hepatoma cells = assay: Cytotoxicity (MTT) in combination with DOX; format: cell-based; conditions: 48 h, sensitizer 5 μg/mL in the combination
Protocol: as §1

[4] = test system: P388 mouse lymphoma cells; assay: Cytotoxicity (MTT) in combination with DOX; format: cell-based; conditions: 48 h, sensitizer 5 μg/mL in the combination
Protocol: as §1

[5] = test system: PC3 human prostate cancer cells; assay: Cytotoxicity (MTT) in combination with DOX; format: cell-based; conditions: 48 h, sensitizer 5 μg/mL in the combination
Protocol: as §1

[6] = test system: BXPC-3 human pancreatic cancer cells; assay: Cytotoxicity (MTT) in combination with DOX; format: cell-based; conditions: 48 h, sensitizer 5 μg/mL in the combination
Protocol: as §1

[7] = test system: MB49 mouse bladder cancer cells; assay: Cytotoxicity (MTT) in combination with DOX; format: cell-based; conditions: 48 h, sensitizer 5 μg/mL in the combination
Protocol: as §1

[8] = test system: A2780 Human ovarian cancer cells; assay: Cytotoxicity (MTT) in combination with DOX; format: cell-based; conditions: 48 h, sensitizer 5 μg/mL in the combination
Protocol: as §1

[9] = test system: Hela human cervical cancer cells; assay: Cytotoxicity (MTT) in combination with DOX; format: cell-based; conditions: 48 h, sensitizer 5 μg/mL in the combination
Protocol: as §1

[10] = test system: HePa1-6 mouse hepatoma cells; assay: Cytotoxicity (MTT) in combination with DOX; format: cell-based; conditions: 48 h, sensitizer 5 μg/mL in the combination
Protocol: as §1

[11] = test system: B16F10 mouse melanoma cells; assay: Cytotoxicity (MTT) in combination with DOX; format: cell-based; conditions: B16-F10, 48 h, sensitizer 5 μg/mL in the combination
Protocol: as §1

[12] = test system: MC38 mouse colon cancer cells; assay: Cytotoxicity (MTT) in combination with DOX; format: cell-based; conditions: MC-38, 48 h, sensitizer 5 μg/mL in the combination
Protocol: as §1

[13] = test system: HepG2 human hepatoma cells; assay: Cytotoxicity (MTT) in combination with DOX; format: cell-based; conditions: 48 h, sensitizer 5 μg/mL in the combination
Protocol: as §1

[14] = test system: 4T1 mouse breast cancer cells; assay: Cytotoxicity (MTT) in combination with DOX; format: cell-based; conditions: 48 h, sensitizer 5 μg/mL in the combination
Protocol: as §1

[15] = test system: MDA-MB-231 human breast cancer cells; assay: Cytotoxicity (MTT) in combination with DOX; format: cell-based; conditions: 48 h, sensitizer 5 μg/mL in the combination
Protocol: as §1

C6 rat glioma cells = assay: Cytotoxicity (MTT) in combination with DOX; format: cell-based; conditions: Glioma cell, 48 h, sensitizer 5 μg/mL in the combination
Protocol: as §1

[16] = test system: HGC-27 human gastric cancer cells; assay: Cytotoxicity (MTT) in combination with DOX; format: cell-based; conditions: 48 h, sensitizer 5 μg/mL in the combination
Protocol: as §1

With CCc1c2c(nc3ccc(O)cc13)-c1cc3c(c(=O)n1C2)COC(=O)[C@]3(O)CC [7-ethyl-10-hydroxycamptothecine] the IC50 [1] was 0.066 ± 0.006 µg/mL (≈ 0.168 µM) and the “IC50, Compound 7+” value [2] was 0.025 ± 0.001 µg/mL.

In the case of N.N.O=C([O-])C1(C(=O)[O-])CCC1.[Pt+2] [Carboplatin], the IC50 [1] is reported as 0.761 ± 0.044 µg/mL and the “IC50, Compound 7+” value [2] is reported as 0.192 ± 0.052 µg/mL.

N.N.[Cl][Pt][Cl] [Cis-platinum] was tested, and the IC50 [1] was 1.28 ± 0.146 µg/mL and the “IC50, Compound 7+” value [2] was 0.571 ± 0.068 µg/mL.

Compound COc1cccc2c1C(=O)c1c(O)c3c(c(O)c1C2=O)C[C@@](O)(C(=O)CO)C[C@@H]3O[C@H]1C[C@H](N)[C@H](O)[C@H](C)O1 [DOX, doxorubicin] has an IC50 [3] of 0.088 ± 0.007 µg/mL, an IC50 (H22 mouse hepatoma cells) of 5.13 ± 0.119 µg/mL and an IC50 [4] of 0.197 ± 0.029 µg/mL. It also gave an IC50 [5] of 2.32 ± 0.195 µg/mL, an IC50 ([2]; Mus musculus, CT26, 48 h) of 0.256 ± 0.017 µg/mL and an IC50 [6] of 14.2 ± 1.68 µg/mL. For the same compound, the IC50 [7] was 0.447 ± 0.022 µg/mL, the IC50 [8] was 10.1 ± 1.24 µg/mL and the IC50 [9] was 2.77 ± 0.492 µg/mL. The IC50 [10] was 1.35 ± 0.331 µg/mL, the IC50 [11] was 0.214 ± 0.011 µg/mL and the IC50 [12] was 0.411 ± 0.017 µg/mL. For the same compound, the IC50 [13] was 3.45 ± 0.778 µg/mL, the IC50 [14] was 1.76 ± 0.221 µg/mL and the IC50 [15] was 3.57 ± 0.153 µg/mL. The IC50 (C6 rat glioma cells) was 0.119 ± 0.026 µg/mL and the IC50 [16] was 1.82 ± 0.227 µg/mL.

With CC(=O)O[C@@]12CO[C@@H]1C[C@H](O)[C@@]1(C)C(=O)[C@H](O)C3=C(C)[C@@H](OC(=O)[C@H](O)[C@@H](NC(=O)OC(C)(C)C)c4ccccc4)C[C@@](O)([C@@H](OC(=O)c4ccccc4)[C@H]21)C3(C)C [Docetaxel] the “IC50, Compound 7+” value [2] was 0.029 ± 0.005 µg/mL.

O=C1[O][Pt]2([NH][C@@H]3CCCC[C@H]3[NH]2)[O]C1=O [Eloxatin] was tested, and the “IC50, Compound 7+” value [2] was 2.497 ± 0.185 µg/mL.

For COc1cccc2c1C(=O)c1c(O)c3c(c(O)c1C2=O)C[C@@](O)(C(=O)CO)C[C@@H]3O[C@H]1C[C@H](N)[C@@H](O)[C@H](C)O1 [Epirubicin], the IC50 [1] was 97.4 ± 3.33 µg/mL (≈ 179 µM) and the “IC50, Compound 7+” value [2] was 17.125 ± 1.338 µg/mL.
